This passage reports MIC results from DBAASP.

Values after ≈ are worked out from the molar mass of the structure shown.

Assay in all cases: ≥ marks a high value that may be exact or a test limit, other limits are often not marked, values filed in µg/mL are converted to µM
Assay [1] relates to Candida albicans ATCC 10231.
Assay [2] has as its system Enterococcus faecalis ATCC 29212.
Assay [3] relates to Escherichia coli O157:H7.
In assay [4] the test system is Salmonella enterica subsp. arizonae CICC 21506.
For assay [5], the system named is Salmonella enterica subsp. enterica serovar Aberdeen CICC 21492.
Assay [6] relates to Salmonella enterica subsp. enterica serovar Adelaide CICC 21505.
In assay [7] the test system is Salmonella enterica subsp. enterica serovar Agona CICC 21586.
Assay [8] deals with Salmonella enterica subsp. enterica serovar Anatum CICC 21498.
Assay [9] has as its system Salmonella enterica subsp. enterica serovar Blockley CICC 21489.
For assay [10], the system named is Salmonella enterica subsp. enterica serovar Bonn CICC 21677.
The subject of assay [11] is Salmonella enterica subsp. enterica serovar Bovismorbificans CICC 21499.
For assay [12], the system named is Salmonella enterica subsp. enterica serovar Braenderup ATCC H9812.
Assay [13] deals with Salmonella enterica subsp. enterica serovar Dakar CICC 21507.
Assay [14] concerns Salmonella enterica subsp. enterica serovar Dublin CICC 21497.
The subject of assay [15] is Salmonella enterica subsp. enterica serovar Eastbourne CICC 21508.
For assay [16], the system named is Salmonella enterica subsp. enterica serovar Enteritidis CMCC 50041.
Assay [17] has as its system Salmonella enterica subsp. enterica serovar Heidelberg CICC 21487.
Assay [18] relates to Salmonella enterica subsp. enterica serovar Jerusalem CICC 21651.
Assay [19] concerns Salmonella enterica subsp. enterica serovar Kentucky CICC 21488.
Assay [20] relates to Salmonella enterica subsp. enterica serovar Meleagridis CICC 21511.
Assay [21] relates to Salmonella enterica subsp. enterica serovar Miami CICC 21509.
The test system of assay [22] is Salmonella enterica subsp. enterica serovar Montevideo CICC 21588.
Assay [23] deals with Salmonella enterica subsp. enterica serovar Potsdam CICC 21500.
Assay [24] has as its system Salmonella enterica subsp. enterica serovar Saintpaul CICC 21486.
The test system of assay [25] is Salmonella enterica subsp. enterica serovar Senftenberg CICC 21502.
The subject of assay [26] is Salmonella enterica subsp. enterica serovar Thompson CICC 21480.
Assay [27] has as its system Salmonella enterica subsp. enterica serovar Typhimurium CICC 21483.
Assay [28] concerns Salmonella enterica subsp. enterica serovar Wandsworth CICC 21504.
For assay [29], the system named is Salmonella typhimurium CMCC 50115.
Assay [30] has as its system Staphylococcus aureus ATCC 29213.
In assay [31] the test system is Staphylococcus aureus ATCC 43300.
Assay [32] deals with Staphylococcus epidermidis ATCC 12228.
In assay [33] the test system is Acinetobacter baumannii ATCC 17978D-5.
For assay [34], the system named is Enterococcus faecium ATCC 700221.
In assay [35] the test system is Klebsiella aerogenes ATCC 13048.
The test system of assay [36] is Pseudomonas aeruginosa ATCC 19660.
Assay [37] concerns Pseudomonas aeruginosa ATCC 27853.
Assay [38] deals with Staphylococcus aureus ATCC 33591.
The test system of assay [39] is Staphylococcus epidermidis ATCC 51625.
Assay [40] concerns Streptococcus pneumoniae ATCC 49619.
Assay [41] concerns Candida albicans NCYC 1467.
Assay [42] has as its system Enterococcus faecalis NCTC 12697.
In assay [43] the test system is Escherichia coli NCTC 10418.
The subject of assay [44] is Staphylococcus aureus NCTC 10788.
In assay [45] the test system is Staphylococcus aureus NCTC 12493.
The subject of assay [46] is Streptococcus mutans ATCC UA159.

As a reminder, the MIC is the lowest concentration found to suppress growth. Read a high MIC as a need for much substance. With `C[C@@H](O)[C@@H]1NC(=O)[C@@H](NC(=O)[C@H](CCCCN)NC(=O)[C@H](Cc2c[nH]c3ccccc23)NC(=O)[C@H](CCCCN)NC(=O)[C@@H](N)Cc2c[nH]c3ccccc23)CSSC[C@@H](C(=O)N[C@@H](CCCCN)C(=O)N[C@@H](Cc2c[nH]c3ccccc23)C(=O)N[C@@H](CCCCN)C(=O)N[C@@H](Cc2c[nH]c3ccccc23)C(N)=O)NC(=O)CNC(=O)[C@H](CO)NC(=O)[C@H](CCCCN)NC1=O` [WKWKCTKSGCKWKW], the MIC in assay [1] amounted to 1.08 µM (≈ 2 µg/mL); in [2], 1.08 µM (≈ 2 µg/mL); in [3] it was 2.16 µM (≈ 3.99 µg/mL); in [4] it was 2.16 µM (≈ 3.99 µg/mL); in assay [5], 2.16 µM (≈ 3.99 µg/mL); in [6], 2.16 µM (≈ 3.99 µg/mL). For the same molecule, the minimum inhibitory concentration (MIC) in assay [7] is 2.16 µM (≈ 3.99 µg/mL); in assay [8], 2.16 µM (≈ 3.99 µg/mL); in [9], 4.31 µM (≈ 7.99 µg/mL); in assay [10], 1.08 µM (≈ 2 µg/mL); in assay [11] it was 2.16 µM (≈ 3.99 µg/mL); in [12], 2.16 µM (≈ 3.99 µg/mL). Also, the MIC came to 2.16 µM (≈ 3.99 µg/mL) in assay [13]; 2.16 µM (≈ 3.99 µg/mL) in [14]; 2.16 µM (≈ 3.99 µg/mL) in [15]; 4.31 µM (≈ 7.99 µg/mL) in assay [16]; 1.08 µM (≈ 2 µg/mL) in assay [17]; 4.31 µM (≈ 7.99 µg/mL) in assay [18]. Moreover, the minimal inhibitory concentration (MIC) in assay [19] turned out to be 2.16 µM (≈ 3.99 µg/mL); in assay [20], 2.16 µM (≈ 3.99 µg/mL); in [21] it was 4.31 µM (≈ 7.99 µg/mL); in [22] it was 2.16 µM (≈ 3.99 µg/mL); in assay [23], 1.08 µM (≈ 2 µg/mL); in [24] it was 1.08 µM (≈ 2 µg/mL). The minimal inhibitory concentration (MIC) in assay [25], in [26], in [27], in assay [28], in assay [29] and in assay [30] was 2.16 µM (≈ 3.99 µg/mL) in each case. For the same molecule, the MIC is 4.31 µM (≈ 7.99 µg/mL) in assay [31] and 2.16 µM (≈ 3.99 µg/mL) in assay [32].
Take `C[C@H](NC(=O)[C@H](Cc1ccccc1)NC(=O)CNC(=O)[C@@H]1CCCN1C(=O)[C@@H](N)CS)C(=O)N[C@@H](CCCCN)C(=O)N[C@@H](CCCCN)C(=O)N[C@@H](Cc1ccccc1)C(=O)N[C@@H](C)C(=O)N[C@@H](CCCCN)C(=O)N[C@@H](CCCCN)C(=O)N[C@@H](Cc1ccccc1)C(=O)N[C@@H](CCCCN)C(=O)N[C@@H](CCCCN)C(=O)N[C@@H](Cc1ccccc1)C(=O)N[C@@H](C)C(=O)N[C@@H](CCCCN)C(=O)N[C@@H](CCCCN)C(=O)N[C@@H](Cc1ccccc1)C(=O)N[C@@H](C)C(=O)N[C@@H](CCCCN)C(=O)N[C@@H](Cc1ccccc1)C(=O)N[C@@H](C)C(=O)N[C@@H](Cc1ccccc1)C(=O)N[C@@H](C)C(=O)N[C@@H](Cc1ccccc1)C(=O)O` [CPGFAKKFAKKFKKFAKKFAKFAFAF]: the MIC worked out at 5.28 µM (≈ 16 µg/mL) in assay [33]; 5.28 µM (≈ 16 µg/mL) in [34]; 10.6 µM (≈ 32 µg/mL) in [35]; 10.6 µM (≈ 32 µg/mL) in assay [36]; 10.6 µM (≈ 32 µg/mL) in [37]; 10.6 µM (≈ 32 µg/mL) in assay [38]. For the same molecule, the minimum inhibitory concentration (MIC) in [39] turned out to be 5.28 µM (≈ 16 µg/mL); in assay [40], 10.6 µM (≈ 32 µg/mL).
On to `CSCC[C@H](NC(=O)[C@H](CC(=O)O)NC(=O)[C@@H](NC(=O)[C@@H](NC(=O)[C@H](C)NC(=O)[C@H](CC(N)=O)NC(=O)[C@H](CC(C)C)NC(=O)[C@H](C)NC(=O)[C@H](C)NC(=O)[C@H](CCCCN)NC(=O)CNC(=O)[C@H](C)NC(=O)[C@H](C)NC(=O)[C@H](CCCCN)NC(=O)CNC(=O)[C@@H](NC(=O)[C@H](Cc1cnc[nH]1)NC(=O)[C@H](CCCCN)NC(=O)[C@H](CC(C)C)NC(=O)[C@H](CC(C)C)NC(=O)[C@@H](NC(=O)[C@H](CCCCN)NC(=O)[C@H](Cc1c[nH]c2ccccc12)NC(=O)[C@H](CC(C)C)NC(=O)[C@H](C)N)[C@@H](C)O)C(C)C)C(C)C)[C@@H](C)O)C(=O)N[C@H](C(=O)N[C@@H](CC(N)=O)C(=O)N[C@@H](CCC(N)=O)C(N)=O)C(C)C` [ALWKTLLKHVGKAAGKAALNAVTDMVNQ], for which the MIC is 4 µM (≈ 11.8 µg/mL) in [41]; at least 32 µM in [42]; 8 µM (≈ 23.6 µg/mL) in [43]; 16 µM (≈ 47.2 µg/mL) in assay [37]; 4 µM (≈ 11.8 µg/mL) in assay [44]; 8 µM (≈ 23.6 µg/mL) in assay [45].
`CC[C@H](C)[C@H](NC(=O)[C@H](CCCCN)NC(=O)[C@H](CCCN=C(N)N)NC(=O)[C@@H](NC(=O)[C@@H](N)Cc1ccc(O)cc1)[C@@H](C)CC)C(=O)N[C@@H](CCCN=C(N)N)C(=O)N[C@@H](CCCN=C(N)N)C(=O)N[C@@H](Cc1ccccc1)C(=O)N[C@@H](Cc1ccccc1)C(=O)N[C@@H](CCCCN)C(=O)N[C@H](C(=O)N[C@@H](CC(C)C)C(=O)N[C@@H](CC(N)=O)C(=O)N[C@@H](CCCCN)C(=O)N[C@@H](CC(N)=O)C(=O)N[C@@H](CC(C)C)C(=O)N[C@@H](CCCCN)C(=O)N[C@@H](CCCCN)C(N)=O)[C@@H](C)O` [YIRKIRRFFKTLNKNLKK] yielded a minimum inhibitory concentration (MIC) in assay [46] of 13.5 µM (≈ 32 µg/mL).
